In one data set the test system is C8166 cells. Put plainly: Cytotoxicity assay (MTT). It is filed as cell-based. On the procedure: (§1) The cytotoxicty assay was performed by 3-(4,5-dimethylthiazol-2-yl)-2,5-diphenyl tetrazoliumbromide (MTT) method. Briefly, 100 μL 4 × 10^4 C8166 cells were seeded each well with 100 μL of different concentrations of compounds in a 96-well plate. The plate was incubated 72 h at 37 °C, 5% CO2 incubator. MTT (20 μL, 5 mg/mL) was added to each well and the plate was incubated at 37 °C for 4 h. Supernatant (100 μL) was discarded and 20% SDS-50% DMF (100 μL) was added. The plates were read at 570/630 nm by a Bio-Tek Elx 800 reader (Bio-Tek Instruments, Inc., Winooski, VT, USA). The 50% cytotoxic concentration (CC50) was calculated.

For a further data set, the system named is HIV-1IIIB. Put plainly: Syncytia inhibition assay (HIV-1IIIB infected C8166 cells). It is filed as cell-based. The conditions noted are these: for TI (in vitro therapeutic index, CC50 value/EC50 value): CC50 in C8166 cells / EC50 syncytia inhibition; for EC50: HIV-1IIIB infected C8166 cells, 72 h, means of two separate experiments, read-out: EC50 (50% effective concentration, reduces syncytia formation by 50%). On the procedure:
Target compounds 6–16 were evaluated for their inhibitory activity against HIV-1 replication in acutely infected C8166 cells in vitro according to the previously described method, and AZT was used as a positive control. The assay results of the target compounds are presented in Table 1 and Table 2, expressed as CC50, EC50 and therapeutic index (TI).
The syncytia inhibition assay was applied by counting syncytia which were formed by HIV-1IIIB infected C8166 cells. Briefly, HIV-1IIIB supernatant and C8166 cells were seeded in a 96-well plate with different concentration of compounds. The plate was incubated in a 37 °C, 5% CO2 incubator for 72 h. Syncytia were counting under an inverted microscope and 50% effective concentration (EC50) was calculated. Therapeutic index (TI) was calculated by the ratio of CC50/EC50.

A short description of a further data set: Cytotoxicity assay (MTT). It is filed as cell-based. The conditions noted are these: human; C8166 cells, MTT, 72 h; means of two separate experiments; read-out: CC50 (50% cytotoxic concentration). On the procedure:
as §1

For another data set, the system named is HIV. On the set-up: method as in earlier work. The conditions noted are these: Figure 1; cited from earlier work.
Where [1] appears, read: Human immunodeficiency virus 1, C8166, 72 h.

Like-named read-outs stand apart in the source and are kept apart here. Bounds are passed on as bounds.

As for “3-(2,3-Dihydroxyphenyl)-1-(4-fluorophenyl)-5-[2-(4-fluorophenyl)ethyl]-3a,6a-dihydro-1H-pyrrolo[3,4-c]pyrazole-4,6-dione [10b]”, in the data set on C8166 cells, the CC50 is 189 µM. For the same compound, in the data set on HIV-1IIIB, the “TI (in vitro therapeutic index, CC50 value/EC50 value)” value is given as 39.85 and the EC50 stood at 4.73 µM.
Take `Cc1cn([C@H]2C[C@H](N=[N+]=[N-])[C@@H](CO)O2)c(=O)[nH]c1=O` [AZT, reference compound]: the CC50 with C8166 cells (C8166 cells, MTT, 72 h, means of two separate experiments, read-out: CC50 (50% cytotoxic concentration)) was determined as 3780 µM. Also, in the data set on HIV-1IIIB, the “TI (in vitro therapeutic index, CC50 value/EC50 value)” value was 444,588 and the EC50 was determined as 0.0085 µM.
Take `O=C1C2C(c3cccc4c3OCO4)=NN(c3ccc(F)cc3)C2C(=O)N1CCc1ccc(F)cc1` (stereo not shown) [12b, 3-Benzo[1,3]dioxol-4-yl-1-(4-fluorophenyl)-5-[2-(4-fluorophenyl)ethyl]-3a,6a-dihydro-1H-pyrrolo[3,4-c]pyrazole-4,6-dione]: the CC50 at 72 h in the data set “Cytotoxicity assay (MTT)” was 222 µM. In addition, the “TI (in vitro therapeutic index, CC50 value/EC50 value)” value with HIV-1IIIB came out at 31.29. Moreover, the EC50 with HIV-1IIIB (setting [1]) is 7.11 µM.
For the compound `O=C1C2C(c3nccs3)=NN(c3ccc(F)cc3)C2C(=O)N1CCc1ccc(F)cc1` (stereo not shown) [14a, 1-(4-Fluorophenyl)-5-[2-(4-fluorophenyl)ethyl]-3-thiazol-2-yl-3a,6a-dihydro-1H-pyrrolo[3,4-c]pyrazole-4,6-dione], the CC50 at 72 h in “Cytotoxicity assay (MTT)” was determined as 158 µM. For the same compound, the “TI (in vitro therapeutic index, CC50 value/EC50 value)” value in the data set with HIV-1IIIB turned out to be 4.46. Also, the EC50 with HIV-1IIIB (setting [1]) was determined as 35.6 µM.
For `CCOc1cccc(C2=NN(c3ccc(F)cc3)C3C(=O)N(CCc4ccc(F)cc4)C(=O)C23)c1O` (stereo not shown) [10c, 1-(4-Fluorophenyl)-5-[2-(4-fluorophenyl)ethyl]-3-(3-ethoxy-2-hydroxyphenyl)-3a,6a-dihydro-1H-pyrrolo[3,4-c]pyrazole-4,6-dione] the same measures were above 407 µM, above 3.51 and 116 µM.
Consider `CCOC(=O)c1ncc(O)c2c1C(=O)N(CCc1ccc(F)cc1)C2=O` [compound 5], for which, in the data set with HIV, the EC50 is 1.65 µM.
On to `COc1cccc(C2=NN(c3ccc(F)cc3F)C3C(=O)N(CCc4ccc(F)cc4)C(=O)C23)c1O` (stereo not shown) [15d, 1-(2,4-Difluorophenyl)-5-[2-(4-fluorophenyl)ethyl]-3-(2-hydroxy-3-methoxyphenyl)-3a,6a-dihydro-1H-pyrrolo[3,4-c]pyrazole-4,6-dione], for which, in “Cytotoxicity assay (MTT)”, the CC50 at 72 h is above 404 µM. The “TI (in vitro therapeutic index, CC50 value/EC50 value)” value in the data set on HIV-1IIIB is given as above 6.12. The EC50 in the data set with HIV-1IIIB (setting [1]) worked out at 65.9 µM.
For `COc1cccc(C2=NN(c3cccc(F)c3)C3C(=O)N(CCc4ccc(F)cc4)C(=O)C23)c1O` (stereo not shown) [15a, 1-(3-Fluorophenyl)-5-[2-(4-fluorophenyl)ethyl]-3-(2-hydroxy-3-methoxyphenyl)-3a,6a-dihydro-1H-pyrrolo[3,4-c]pyrazole-4,6-dione], in that order: 129 µM, 10.67 and 12.1 µM.
For the compound `O=C1C2C(c3cccc(Cl)c3O)=NN(c3ccc(F)cc3)C2C(=O)N1CCc1ccc(F)cc1` (stereo not shown) [9d, 3-(3-Chloro-2-hydroxyphenyl)-1-(4-fluorophenyl)-5-[2-(4-fluorophenyl)ethyl]-3a,6a-dihydro-1H-pyrrolo[3,4-c]pyrazole-4,6-dione], in “Cytotoxicity assay (MTT)”, the CC50 at 72 h is 332 µM. The “TI (in vitro therapeutic index, CC50 value/EC50 value)” value in the data set on HIV-1IIIB came to 16.23. In the data set on HIV-1IIIB (setting [1]), the EC50 turned out to be 20.4 µM.
`COc1ccc(C2=NN(c3ccc(F)cc3)C3C(=O)N(CCc4ccc(F)cc4)C(=O)C23)c(O)c1` (stereo not shown) [10a, 1-(4-Fluorophenyl)-5-[2-(4-fluorophenyl)ethyl]-3-(2-hydroxy-4-methoxyphenyl)-3a,6a-dihydro-1H-pyrrolo[3,4-c]pyrazole-4,6-dione]: the CC50 at 72 h in the data set “Cytotoxicity assay (MTT)” was determined as 21.4 µM. For the same compound, in the data set on HIV-1IIIB, the “TI (in vitro therapeutic index, CC50 value/EC50 value)” value turned out to be 2.51. Also, the EC50 in the data set on HIV-1IIIB (setting [1]) is 8.52 µM.
On to `COc1cccc(C2=NN(c3ccc(F)cc3)C3C(=O)N(CCc4ccccc4)C(=O)C23)c1O` (stereo not shown) [16d, 1-(4-Fluorophenyl)-3-(2-hydroxy-3-methoxyphenyl)-5-phenethyl-3a,6a-dihydro-1H-pyrrolo[3,4-c]pyrazole-4,6-dione], for which the CC50 at 72 h in “Cytotoxicity assay (MTT)” was above 436 µM. In addition, in the data set with HIV-1IIIB, the “TI (in vitro therapeutic index, CC50 value/EC50 value)” value is above 23.09. Besides, the EC50 in the data set on HIV-1IIIB (setting [1]) was 18.9 µM.
Consider `COc1c(O)cccc1C1=NN(c2ccc(F)cc2)C2C(=O)N(CCc3ccc(F)cc3)C(=O)C12` (stereo not shown) [7a, 1-(4-Fluorophenyl)-5-[2-(4-fluorophenyl)ethyl]-3-(3-hydroxy-2-methoxyphenyl)-3a,6a-dihydro-1H-pyrrolo[3,4-c]pyrazole-4,6-dione], for which the CC50 at 72 h in the data set “Cytotoxicity assay (MTT)” came out at 39.1 µM. Moreover, the “TI (in vitro therapeutic index, CC50 value/EC50 value)” value in the data set with HIV-1IIIB amounted to 7.29. Moreover, the EC50 in the data set with HIV-1IIIB (setting [1]) is 5.37 µM.
For `O=C1C2C(c3cc(F)ccc3O)=NN(c3ccc(F)cc3)C2C(=O)N1CCc1ccc(F)cc1` (stereo not shown) [9c, 1-(4-Fluorophenyl)-5-[2-(4-fluorophenyl)ethyl]-3-(5-fluoro-2-hydroxyphenyl)-3a,6a-dihydro-1H-pyrrolo[3,4-c]pyrazole-4,6-dione], the CC50 at 72 h in the data set “Cytotoxicity assay (MTT)” came out at 159 µM. In addition, in the data set with HIV-1IIIB, the “TI (in vitro therapeutic index, CC50 value/EC50 value)” value is reported as 37.70. Further, the EC50 in the data set on HIV-1IIIB (setting [1]) was 4.21 µM.
As to `COc1cccc(C2=NN(c3ccccc3)C3C(=O)N(CCc4ccc(F)cc4)C(=O)C23)c1O` (stereo not shown) [15h, 5-[2-(4-Fluorophenyl)ethyl]-3-(2-hydroxy-3-methoxyphenyl)-1-phenyl-3a,6a-dihydro-1H-pyrrolo[3,4-c]pyrazole-4,6-dione], the CC50 at 72 h in the data set “Cytotoxicity assay (MTT)” is above 436 µM. In the data set with HIV-1IIIB, the “TI (in vitro therapeutic index, CC50 value/EC50 value)” value is on record as above 15.22. Moreover, in the data set on HIV-1IIIB (setting [1]), the EC50 is 28.6 µM.
In the case of `COc1cccc(C2=NN(c3ccc(F)cc3)C3C(=O)N(CCc4ccccc4F)C(=O)C23)c1O` (stereo not shown) [16a, 1-(4-Fluorophenyl)-5-[2-(2-fluorophenyl)ethyl]-3-(2-hydroxy-3-methoxyphenyl)-3a,6a-dihydro-1H-pyrrolo[3,4-c]pyrazole-4,6-dione], in the data set “Cytotoxicity assay (MTT)”, the CC50 at 72 h is 19.6 µM. In the data set with HIV-1IIIB, the “TI (in vitro therapeutic index, CC50 value/EC50 value)” value came out at 7.78. Also, the EC50 in the data set with HIV-1IIIB (setting [1]) came out at 2.52 µM.
For `O=C1C2C(c3ccccn3)=NN(c3ccc(F)cc3)C2C(=O)N1CCc1ccc(F)cc1` (stereo not shown) [14b, 1-(4-Fluorophenyl)-5-[2-(4-fluorophenyl)ethyl]-3-pyridin-2-yl-3a,6a-dihydro-1H-pyrrolo[3,4-c]pyrazole-4,6-dione], in that order: 150 µM, 5.73 and 26.2 µM.
Consider `COc1cccc(C2=NN(c3ccc(S(C)(=O)=O)cc3)C3C(=O)N(CCc4ccc(F)cc4)C(=O)C23)c1O` (stereo not shown) [15f, 5-[2-(4-Fluorophenyl)ethyl]-3-(2-hydroxy-3-methoxyphenyl)-1-(4-methanesulfonylphenyl)-3a,6a-dihydro-1H-pyrrolo[3,4-c]pyrazole-4,6-dione], for which, in “Cytotoxicity assay (MTT)”, the CC50 at 72 h was above 372 µM. The “TI (in vitro therapeutic index, CC50 value/EC50 value)” value in the data set with HIV-1IIIB is on record as above 5.70. For the same compound, in the data set on HIV-1IIIB (setting [1]), the EC50 worked out at 65.3 µM.
